The values below come from patent US6410552B1, “Benzoether and related compositions and methods” (Ortho-McNeil Pharmaceutical, Inc., priority 2000, dated 2002).

Each structure is given as a SMILES string. pIC50: −log10 of the molar value.

T1 sequence (P15381 whole entry, other chains not shown): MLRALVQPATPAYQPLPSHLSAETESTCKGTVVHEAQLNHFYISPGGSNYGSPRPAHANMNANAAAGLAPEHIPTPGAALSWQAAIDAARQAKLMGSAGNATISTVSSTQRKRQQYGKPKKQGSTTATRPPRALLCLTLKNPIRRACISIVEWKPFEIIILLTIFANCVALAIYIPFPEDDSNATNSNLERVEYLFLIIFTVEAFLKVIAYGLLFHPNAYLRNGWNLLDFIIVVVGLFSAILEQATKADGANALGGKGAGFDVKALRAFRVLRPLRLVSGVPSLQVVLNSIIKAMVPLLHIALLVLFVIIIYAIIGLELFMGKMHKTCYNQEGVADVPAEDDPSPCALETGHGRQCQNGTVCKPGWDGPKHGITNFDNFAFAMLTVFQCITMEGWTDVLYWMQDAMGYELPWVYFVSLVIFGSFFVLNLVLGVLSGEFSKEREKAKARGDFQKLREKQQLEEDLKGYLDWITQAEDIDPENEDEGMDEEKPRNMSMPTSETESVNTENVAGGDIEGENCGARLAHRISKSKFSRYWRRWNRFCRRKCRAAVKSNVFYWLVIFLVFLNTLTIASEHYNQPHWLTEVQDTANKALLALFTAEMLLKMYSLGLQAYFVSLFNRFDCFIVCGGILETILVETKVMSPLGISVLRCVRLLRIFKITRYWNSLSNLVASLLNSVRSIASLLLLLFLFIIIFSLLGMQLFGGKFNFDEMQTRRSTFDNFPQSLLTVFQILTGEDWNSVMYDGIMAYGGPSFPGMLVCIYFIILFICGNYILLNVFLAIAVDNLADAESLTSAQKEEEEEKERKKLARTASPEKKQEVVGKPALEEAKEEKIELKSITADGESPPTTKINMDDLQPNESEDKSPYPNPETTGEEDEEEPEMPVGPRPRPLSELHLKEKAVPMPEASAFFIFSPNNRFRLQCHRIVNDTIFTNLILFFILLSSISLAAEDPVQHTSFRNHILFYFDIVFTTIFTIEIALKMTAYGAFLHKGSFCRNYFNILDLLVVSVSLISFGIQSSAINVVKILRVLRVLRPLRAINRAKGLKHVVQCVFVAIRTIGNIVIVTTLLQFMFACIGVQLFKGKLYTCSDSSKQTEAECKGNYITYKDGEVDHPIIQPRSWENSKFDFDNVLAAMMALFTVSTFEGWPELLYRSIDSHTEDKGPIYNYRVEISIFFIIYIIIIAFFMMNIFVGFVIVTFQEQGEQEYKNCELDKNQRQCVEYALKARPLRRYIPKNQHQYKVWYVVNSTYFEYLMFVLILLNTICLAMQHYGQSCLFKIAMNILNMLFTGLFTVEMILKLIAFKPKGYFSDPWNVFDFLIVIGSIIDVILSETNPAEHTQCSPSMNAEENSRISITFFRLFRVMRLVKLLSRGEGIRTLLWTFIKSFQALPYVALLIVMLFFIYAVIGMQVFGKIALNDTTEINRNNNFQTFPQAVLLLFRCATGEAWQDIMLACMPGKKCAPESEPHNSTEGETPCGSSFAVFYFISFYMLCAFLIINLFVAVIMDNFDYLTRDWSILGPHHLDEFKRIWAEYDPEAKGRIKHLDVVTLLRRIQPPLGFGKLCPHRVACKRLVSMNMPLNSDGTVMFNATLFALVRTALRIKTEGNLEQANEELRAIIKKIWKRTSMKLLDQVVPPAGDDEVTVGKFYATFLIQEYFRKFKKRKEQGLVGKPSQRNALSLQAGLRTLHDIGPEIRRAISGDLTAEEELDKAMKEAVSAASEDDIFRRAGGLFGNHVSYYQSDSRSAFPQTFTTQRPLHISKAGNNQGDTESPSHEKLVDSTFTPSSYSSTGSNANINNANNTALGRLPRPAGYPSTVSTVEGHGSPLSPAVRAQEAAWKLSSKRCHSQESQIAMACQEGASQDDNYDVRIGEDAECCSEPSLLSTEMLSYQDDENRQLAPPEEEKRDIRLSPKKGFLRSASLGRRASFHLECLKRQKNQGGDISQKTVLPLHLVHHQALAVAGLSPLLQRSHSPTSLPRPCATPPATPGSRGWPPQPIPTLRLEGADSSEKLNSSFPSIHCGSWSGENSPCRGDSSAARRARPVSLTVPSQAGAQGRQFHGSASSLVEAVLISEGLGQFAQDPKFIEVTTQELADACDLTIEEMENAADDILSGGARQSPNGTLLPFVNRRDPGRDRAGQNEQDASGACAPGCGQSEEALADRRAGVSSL
T1 sequence (P13806 27-960 partner limits assumed, other chains not shown): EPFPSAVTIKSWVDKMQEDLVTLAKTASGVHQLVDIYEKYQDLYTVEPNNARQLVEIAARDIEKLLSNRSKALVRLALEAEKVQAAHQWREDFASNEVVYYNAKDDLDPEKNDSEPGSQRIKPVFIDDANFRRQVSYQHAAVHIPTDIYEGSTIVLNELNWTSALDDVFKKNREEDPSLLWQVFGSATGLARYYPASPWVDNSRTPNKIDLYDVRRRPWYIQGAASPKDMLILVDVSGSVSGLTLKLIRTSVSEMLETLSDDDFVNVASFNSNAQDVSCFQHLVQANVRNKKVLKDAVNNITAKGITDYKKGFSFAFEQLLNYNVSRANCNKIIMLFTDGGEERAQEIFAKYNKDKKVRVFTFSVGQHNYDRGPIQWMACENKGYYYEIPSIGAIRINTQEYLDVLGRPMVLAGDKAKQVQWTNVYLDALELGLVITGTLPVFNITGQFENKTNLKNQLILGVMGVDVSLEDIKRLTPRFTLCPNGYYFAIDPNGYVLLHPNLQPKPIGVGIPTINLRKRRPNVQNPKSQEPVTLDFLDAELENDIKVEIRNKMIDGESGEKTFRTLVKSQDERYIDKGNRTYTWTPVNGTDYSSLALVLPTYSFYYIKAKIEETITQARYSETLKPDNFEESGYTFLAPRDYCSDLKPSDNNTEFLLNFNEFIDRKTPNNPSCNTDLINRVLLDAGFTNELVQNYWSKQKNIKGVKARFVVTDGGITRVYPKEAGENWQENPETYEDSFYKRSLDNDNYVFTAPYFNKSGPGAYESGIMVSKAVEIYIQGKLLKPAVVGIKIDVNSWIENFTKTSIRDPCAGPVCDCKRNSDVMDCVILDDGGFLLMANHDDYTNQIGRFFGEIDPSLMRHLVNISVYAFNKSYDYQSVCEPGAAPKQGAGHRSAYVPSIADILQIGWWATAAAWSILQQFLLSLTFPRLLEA
T1 sequence (P13806 961-1106 partner limits assumed, other chains not shown): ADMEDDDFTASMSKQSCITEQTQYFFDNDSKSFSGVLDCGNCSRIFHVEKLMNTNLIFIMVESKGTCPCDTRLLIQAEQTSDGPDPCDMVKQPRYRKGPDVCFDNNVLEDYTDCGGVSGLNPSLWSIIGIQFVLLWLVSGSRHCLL

This assay addresses T1, calcium channel (Oryctolagus cuniculus, UniProt P15381).
T1 construct: from tissue; host or cells: rabbit heart membranes
The experiment in a line: Assay for Inhibition of Nitrendipine Binding (3H-nitrendipine, heart membranes). The following applies: displacement of 3H-nitrendipine (0.05-0.50 nM) from rabbit heart membranes, 90 minutes at 4° C. As to the method: Female, New Zealand white rabbits (1-2 kg) are sacrificed by cervical dislocation, and the heart is immediately removed, cleaned and chopped into small pieces. The tissue is homogenized in 5×times volume of 0.05M Hepes buffer, pH 7.4. The homogenate is centrifuged at 4000 g for 10 minutes, and the supernatant is re-centrifuged at 42,000×g for 90 minutes. The resulting membrane pellet is resuspended (0.7 ml/g weight) in 0.05M Hepes, pH 7.4 and stored at […] until used. Each tube of the binding assay contains ^3H-nitrendipine (0.05-0.50 nM), buffer, membranes (0.10 ml), and test compound in a total volume of 1.0 ml. After 90 minutes at 4° C., the bound nitrendipine is separated from the unbound by filtration on Whatman GF/C filters. After rinsing, the filters are dried and counted in a liquid scintillation counter.
Non-specific binding of ^3H-nitrendipine (that amount bound in the presence of excess unlabelled nitrendipine) is subtracted from the total bound to obtain specifically bound radiolabeled nitrendipine. The amount of specifically bound nitrendipine in the presence of a test compound is compared to that amount bound in the absence of a compound. A percent displacement (or inhibition) can then be calculated.
Background: Loss of bound radioactivity is the signal in a displacement assay; it reports binding, not function.
For `COC(=O)C1=C(C)NC2=C(C1c1ccccc1Cl)S(=O)(=O)c1ccccc1OC2` (stereo not shown) [Compound 1, 1H-[1,5]Benzoxathiepino[3,4-b]pyridine-3-carboxylic acid, 4-(2-chlorophenyl)-4,11-dihydro-2-methyl-, methyl ester, 5,5-dioxide], the pIC50 (as a rule, the negative decadic logarithm of the IC50, by convention in mol/L) was 7.21.

With `CC1=C(C(=O)OCCN(C)Cc2ccccc2)C(c2ccccc2Cl)C2=C(COc3ccccc3S2(=O)=O)N1` (stereo not shown) [Compound 2, 1H-[1,5]Benzoxathiepino[3,4-b]pyridine-3-carboxylic acid, 4-(2-chlorophenyl)-4,11-dihydro-2-methyl-, 2-[methyl(phenylmethyl)amino]ethyl ester, 5,5-dioxide], the pIC50 was 7.23.

Consider `COC(=O)C1=C(C)NC2=C(C1c1cccc([N+](=O)[O-])c1)S(=O)(=O)c1ccccc1OC2` (stereo not shown) [Compound 3, 1H-[1,5]Benzoxathiepino[3,4-b]pyridine-3-carboxylic acid, 4,11-dihydro-2-methyl-4-(3-nitrophenyl)-, methyl ester, 5,5-dioxide], for which the pIC50 was 7.48.

For the molecule `CC1=C(C(=O)OCCN(C)Cc2ccccc2)C(c2cccc([N+](=O)[O-])c2)C2=C(COc3ccccc3S2(=O)=O)N1` (stereo not shown) [Compound 4, 1H-[1,5]Benzoxathiepino[3,4-b]pyridine-3-carboxylic acid, 4,11-dihydro-2-methyl-4-(3-nitrophenyl)-, 2-[methyl(phenylmethyl)amino]ethyl ester, 5,5-dioxide], the negative-log IC50 (pIC50) is 7.35.

Consider `CC1=C(C(=O)OCCN(C)Cc2ccccc2)C(c2cccc(Cl)c2)C2=C(COc3ccccc3S2(=O)=O)N1` (stereo not shown) [Compound 5, 1H-[1,5]Benzoxathiepino[3,4-b]pyridine-3-carboxylic acid, 4-(3-chlorophenyl)-4,11-dihydro-2-methyl-, 2-[methyl(phenylmethyl)amino]ethyl ester, 5,5-dioxide], for which the pIC50 is 6.96.

Take `CC1=C(C(=O)OCCN(C)Cc2ccccc2)C(c2cccc(Cl)c2Cl)C2=C(COc3ccccc3S2(=O)=O)N1` (stereo not shown) [Compound 6, 1H-[1,5]Benzoxathiepino[3,4-b]pyridine-3-carboxylic acid, 4-(2,3-dichlorophenyl)4,11-dihydro-2-methyl-, 2-[methyl(phenylmethyl)amino]ethyl ester, 5,5-dioxide]: the pIC50 was 7.68.

In the case of `CC1=C(C(=O)OCCN(C)Cc2ccccc2)C(c2c(F)cccc2Cl)C2=C(COc3ccccc3S2(=O)=O)N1` (stereo not shown) [Compound 7, 1H-[1,5]Benzoxathiepino[3,4-b]pyridine-3-carboxylic acid, 4-(2-chloro-6-fluorophenyl)-4,11-dihydro-2-methyl-, 2-[methyl(phenylmethyl)amino]ethyl ester, 5,5-dioxide], the pIC50 was 7.33.
